9 compounds from patent US20200315960A1, “DRUG DELIVERY DEVICE AND METHOD” (BIORINGS LLC, priority 2019, published 2020) can be followed below.

Assay [1] concerns human sperm. Description: Effect of various concentrations on the motility of human sperm. The note with it: for concentration shown to be spermiostatic: motility of human sperm; for spermiostatic effects: lower concentrations of albumin and dextran. It counts as cell-based. The source says: The effects of various concentrations of magnesium chloride, calcium chloride, ferrous sulfate, copper sulfate, and ferrous gluconate on the motility of human sperm were studied.

The nature of assay [2]: Effect on viscosity of cervical mucus. The note with it: concentrations from 0.310% to a range of 1-2.5%.

For Ferrous sulfate, the “concentration that completely arrested the motility of human sperm” value in assay [1] (complete arrest of motility) was 10 mM. In the case of `[Ca+2].[Cl-].[Cl-]` [Calcium chloride], the “concentration shown to be spermiostatic” value in assay [1] stood at 25 mM. Turning to ferrous gluconate, the immobilization of sperm in assay [1] (25 mM solutions) is recorded as 97.4%; in assay [1] (37.5 mM solutions), “completely immobilized all the sperm”. For the same compound, the “concentration shown to be spermiostatic” value in assay [1] came to 12.5 mM. `O=C1O[C@H]([C@@H](O)CO)C(O)=C1O` [L-ascorbic acid]: the “overall viscosity of the mucus” value in assay [2] is listed as “increases in direct relationship with increasing concentrations”.

For `[Cl-].[Cl-].[Mg+2]` [magnesium chloride], the “concentration shown to be spermiostatic” value in assay [1] is listed as 35 mM. With `O=S(=O)([O-])[O-].[Cu+2]` [Copper sulfate], the immobilization of sperm is given as 93.3% in assay [1] (25 mM solutions) and “completely immobilized all the sperm” in assay [1] (37.5 mM solutions). Besides, the “concentration shown to be spermiostatic” value in assay [1] was found to be 6.25 mM. “ferrous gluconate [dihydrate form of ferrous gluconate]”: in assay [1] (in the presence of the dihydrate form), the “onset of spermiostatic effect” value is on record as “immediate”.

Turning to dextran, in assay [1] (1.25% solution of dextran), the sperm immobilized was ~95%. The spermiostatic effects result in assay [1] is listed as “not significant”. For the compound albumin, the sperm completely immobilized in assay [1] (20% albumin) and in assay [1] (40% albumin) was ~97% throughout. Besides, the sperm motility result in assay [1] (albumin concentration 10%) was “decreased sperm motility almost close to that of 12.5 mM concentration of ferrous gluconate”. For the same compound, the spermiostatic effects result in assay [1] is recorded as “not significant”.
